Reference: patent US10227331B2 (priority 2015, dated 2019)

What was measured:
[1] = tested on: P. aeruginosa expressing IMP-1, efflux+ (MB9798); format: cell-based, Pseudomonas aeruginosa; settings: for P. aeruginosa expressing IMP-1, efflux+ (MB9798) MITC95: imipenem at 2 μg/mL, in the presence of a class A, C, D serine β-lactamase inhibitor closely related to relebactam; for Efflux ratio: ratio MITC95 PA_9798/MITC95 PA_9799
Text: (§1) The strain background is Pseudomonas aeruginosa PAO1.

VIM-1 = VIM-1 (Pseudomonas aeruginosa (strain ATCC 15692 / DSM 22644 / CIP 104116 / JCM 14847 / LMG 12228 / 1C / PRS 101 / PAO1), UniProt A0A0F7KYQ8); experiment: biochemical; settings: CCF2-FA substrate, 2 hours at 25° C
Method in brief: (§2)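 Enzyme activity was measured by fluorescence using CCF2-FA, a cephalosporin-linked 7-hydroxycoumarin/fluorescein substrate, with inhibitor, metallo-β-lactamase and substrate incubated together for 2 hours at 25° C. IC50 came from a 4-parameter fit of inhibition versus log inhibitor concentration.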

[2] = tested on: P. aeruginosa expressing IMP-1, efflux− (MB9799); experiment: Efflux: concentration of MBL inhibitor which restores susceptibility to imipenem; format: cell-based, Pseudomonas aeruginosa; settings: imipenem at 2 μg/mL, in the presence of a class A, C, D serine β-lactamase inhibitor closely related to relebactam
Text: as §1

[3] = tested on: Escherichia coli expressing NDM-1 (CLB30005, CLB30016); format: cell-based; settings: with imipenem 1 μg/ml, 95% inhibition of bacterial growth; for Escherichia coli MITC95: NDM-1 (CLB30016)
Method in brief: (§3)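 Restoration of imipenem susceptibility (1 μg/ml imipenem) was judged by absorbance after 22–24 h at 35° C. Test compound was added to bacteria suspended 1:100 in 1.1× CAMHB from overnight blood-agar cultures.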

[4] = tested on: Klebsiella pneumoniae expressing VIM-1 (IHMA599644); format: cell-based; settings: with imipenem 1 μg/ml, 95% inhibition of bacterial growth; for Klebsiella pneumoniae MITC95: VIM-1 (IHMA599644)
Method in brief: as §3

[5] = tested on: Serratia marcescens expressing IMP-1 (CL5741); format: cell-based; settings: with imipenem 1 μg/ml, 95% inhibition of bacterial growth; for Serratia marcescens MITC95: IMP-1 (CL5741)
Method in brief: as §3

NDM-1 = NDM-1 (Klebsiella pneumoniae, UniProt C7C422); experiment: biochemical; format: biochemical; settings: CCF2-FA substrate, 2 hours at 25° C; read-out: NDM-1 IC50
Method in brief: as §2

IMP-1 = IMP-1 (Serratia marcescens, UniProt P52699); experiment: biochemical; format: biochemical; settings: CCF2-FA substrate, 2 hours at 25° C; read-out: IMP-1 IC50
Method in brief: as §2

Chain of IMP-1 (P52699 whole entry, looked up, species assumed): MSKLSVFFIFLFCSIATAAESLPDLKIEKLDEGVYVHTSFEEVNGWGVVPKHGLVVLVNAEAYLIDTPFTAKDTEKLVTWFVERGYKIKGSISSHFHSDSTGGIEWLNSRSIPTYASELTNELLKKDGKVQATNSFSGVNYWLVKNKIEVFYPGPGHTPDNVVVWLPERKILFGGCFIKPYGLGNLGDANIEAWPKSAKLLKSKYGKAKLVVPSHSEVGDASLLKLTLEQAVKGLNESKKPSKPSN
Chain of NDM-1 (C7C422 whole entry, looked up, species assumed): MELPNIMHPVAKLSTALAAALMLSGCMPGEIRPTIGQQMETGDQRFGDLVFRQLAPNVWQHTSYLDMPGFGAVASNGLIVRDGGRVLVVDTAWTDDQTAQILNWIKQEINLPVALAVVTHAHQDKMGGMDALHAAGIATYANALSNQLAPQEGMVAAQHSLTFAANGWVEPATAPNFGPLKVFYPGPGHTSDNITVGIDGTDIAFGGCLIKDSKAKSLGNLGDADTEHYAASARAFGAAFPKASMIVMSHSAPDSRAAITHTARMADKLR

Row | Structure (SMILES) | P. aeruginosa expressing IMP-1, efflux+ (MB9798) MITC95 [1] [µM] | Efflux ratio [1] | IC50 (VIM-1) [nM] | P. aeruginosa expressing IMP-1, efflux− (MB9799) MITC95 [2] [µM] | Escherichia coli MITC95 [3] [µM] | Klebsiella pneumoniae MITC95 [4] [µM] | Serratia marcescens MITC95 [5] [µM] | IC50 (NDM-1) [nM] | IC50 (IMP-1) [nM] | Escherichia coli expressing NDM-1 (CLB30016) MITC95 [3] [µM] | Klebsiella pneumoniae expressing VIM-1 (IHMA599644) MITC95 [4] [µM] | Serratia marcescens expressing IMP-1 (CL5741) MITC95 [5] [µM]
1 | Nc1nc2c(-c3ccc(S(=O)(=O)C4CNC4)c(S(N)(=O)=O)c3-c3nn[nH]n3)cccc2s1 [Example 317, 3-(2-aminobenzo[d]thiazol-4-yl)-6-(azetidin-3-ylsulfonyl)-2-(2H-tetrazol-5-yl)benzenesulfonamide] | 0.7813 | 1.00 | 0.189 | 0.7813 | 1.172 | 1.563 | 0.7813 | 0.0312 | 0.227 | – | – | –
2 | NCCS(=O)(=O)c1ccc(-c2cccc3ccc(N)nc23)c(-c2nn[nH]n2)c1S(N)(=O)=O [Example 71, 6-(2-aminoethylsulfonyl)-3-(2-aminoquinolin-8-yl)-2-(2H-tetrazol-5-yl)benzenesulfonamide] | 0.7813 | 1.00 | 0.315 | 0.7813 | – | – | – | 0.115 | 0.129 | 0.3906 | 1.563 | 0.7813
3 | NS(=O)(=O)c1c(S(=O)(=O)CC2CNC2)ccc([C@H]2CC[C@H](N)CC2)c1-c1nnn[nH]1 [Example 204, 3-((1r,4r)-4-aminocyclohexyl)-6-((azetidin-3-ylmethyl)sulfonyl)-2-(1H-tetrazol-5-yl)benzenesulfonamide] | 1.563 | 2.00 | 1.04 | 0.7813 | – | – | – | 16.2 | 37.5 | 0.7813 | 1.563 | 1.563
4 | CCCS(=O)(=O)c1ccc(C2=CCC(N)CC2)c(-c2nnn[nH]2)c1S(N)(=O)=O (stereo not drawn) [Example 211, 4′-amino-4-(propylsulfonyl)-2-(1H-tetrazol-5-yl)-2′,3′,4′,5′-tetrahydro-[1,1′-biphenyl]-3-sulfonamide] | 50 | 31.99 | 0.785 | 1.563 | – | – | – | 24.3 | 6.32 | 12.5 | 25 | 6.25
5 | NS(=O)(=O)c1c(S(=O)(=O)C2CNC2)ccc(-c2cccc3[nH]c(C(=O)O)nc23)c1-c1nn[nH]n1 [Example 253, 4-(4-(Azetidin-3-ylsulfonyl)-3-sulfamoyl-2-(2H-tetrazol-5-yl)phenyl)-1H-benzo[d]imidazole-2-carboxylic Acid] | 1.563 | 1.00 | 0.294 | 1.563 | 1.563 | 3.125 | 1.563 | 0.173 | 0.664 | – | – | –
6 | C[C@H](CN)S(=O)(=O)c1ccc(-c2cccc3sc(N)nc23)c(-c2nn[nH]n2)c1S(N)(=O)=O [Example 285, 3-(2-aminobenzo[d]thiazol-4-yl)-6-((R)-1-aminopropan-2-ylsulfonyl)-2-(2H-tetrazol-5-yl)benzenesulfonamide] | 3.125 | 4.00 | 0.364 | 0.7813 | 3.125 | 1.563 | 1.563 | 0.37 | 0.534 | – | – | –
7 | NC(=O)CN1CC(S(=O)(=O)c2ccc(-c3cccc4[nH]c(N)nc34)c(-c3nn[nH]n3)c2S(N)(=O)=O)C1 [Example 50, 2-(3-(4-(2-amino-1H-benzo[d]imidazol-4-yl)-2-sulfamoyl-3-(2H-tetrazol-5-yl)phenylsulfonyl)azetidin-1-yl)acetamide] | 3.125 | 1.00 | 0.585 | 3.125 | – | – | – | 0.242 | 1.44 | 3.125 | 6.25 | 3.125
8 | NS(=O)(=O)c1c(S(=O)(=O)C2CNC2)ccc(-c2ccc3cnccc3c2)c1-c1nnn[nH]1.O=C(O)C(F)(F)F [Example 116, 3-((4-(isoquinolin-6-yl)-2-sulfamoyl-3-(1H-tetrazol-5-yl)phenyl)sulfonyl)azetidin-1-ium 2,2,2-trifluoroacetate] | 25 | 15.99 | 0.177 | 1.563 | – | – | – | 0.199 | 0.722 | 1.563 | 3.125 | 3.125
9 | NCCS(=O)(=O)c1ccc(-c2cccc3[nH]c([C@H](N)CNC(=O)C(F)(F)F)nc23)c(-c2nn[nH]n2)c1S(N)(=O)=O [Example 328, (R)—N-(2-Amino-2-(4-(4-((2-aminoethyl)sulfonyl)-3-sulfamoyl-2-(2H-tetrazol-5-yl)phenyl)-1H-benzo[d]imidazol-2-yl)ethyl)-2,2,2-trifluoroacetamide] | 3.125 | 2.00 | 0.474 | 1.563 | 1.563 | 3.125 | 3.125 | 1.3 | 3.42 | – | – | –
10 | NS(=O)(=O)c1c(S(=O)(=O)C2CNC2)ccc(-c2cccc3c2CNC3=O)c1-c1nnn[nH]1.O=C(O)C(F)(F)F [Example 113, 3-((4-(1-oxoisoindolin-4-yl)-2-sulfamoyl-3-(1H-tetrazol-5-yl)phenyl)sulfonyl)azetidin-1-ium 2,2,2-trifluoroacetate] | 12.5 | 8.00 | 0.164 | 1.563 | – | – | – | 0.137 | 6.06 | 1.563 | 6.25 | 3.125
11 | NS(=O)(=O)c1c(S(=O)(=O)C2CNC2)ccc(-c2cncnc2)c1-c1nnn[nH]1.O=C(O)C(F)(F)F [Example 110, 3-((4-(pyrimidin-5-yl)-2-sulfamoyl-3-(1H-tetrazol-5-yl)phenyl)sulfonyl)azetidin-1-ium 2,2,2-trifluoroacetate] | 25 | 15.99 | 3.47 | 1.563 | – | – | – | 4.79 | 13.2 | 1.563 | 3.125 | 1.563
12 | NS(=O)(=O)c1c([S+]([O-])C2CCNCC2)ccc(-c2ccc(C3CCNCC3)cc2)c1-c1nnn[nH]1 (stereo not drawn) [Example 227, 4′-(piperidin-4-yl)-4-(piperidin-4-ylsulfinyl)-2-(1H-tetrazol-5-yl)-[1,1′-biphenyl]-3-sulfonamide] | 3.125 | 2.00 | 1.18 | 1.563 | – | – | – | 1.95 | 5.9 | 3.125 | 6.25 | 6.25
13 | Nc1ccc2ncc(-c3ccc(S(=O)(=O)C4CNC4)c(S(N)(=O)=O)c3-c3nn[nH]n3)n2n1 [Example 17, 3-(6-Aminoimidazo[1,2-b]pyridazin-3-yl)-6-(azetidin-3-ylsulfonyl)-2-(2H-tetrazol-5-yl)benzenesulfonamide] | 3.125 | 2.00 | 0.707 | 1.563 | – | – | – | 0.207 | 0.959 | 3.125 | 6.25 | 3.125
